Consider three compounds from patent US8673591B2, “Genetic incorporation of 3-aminotyrosine into reductases” (The Scripps Research Institute, priority 2007, dated 2014).

Read-outs that look alike come from different tables or passages of the source.

Data set [1] has as its target T1, E. coli ribonucleotide reductase (RNR) (Escherichia coli, UniProt P00452).
T1 construct: made in house; host or cells: E. coli DH10B (NH2Y-α2s)
The conditions noted are these: inactivation of wt α2β2 by N3ADP/dGTP; 20 s time scale; cited from earlier work.

For data set [2], the system named is DH10B E. coli cells. The data set is described as follows: Toxicity of NH2Y: growth of E. coli in GMML medium and on agar plates. Type of data set: cell-based. From the text:
(§1) Toxicity and uptake of NH2Y. Evolution of an NH2Y-specific aminoacyl-tRNA synthetase (RS) requires that NH2Y is taken up by E. coli, that it is not toxic, and that it is not incorporated into proteins by any endogenous RSs. All three requirements were met by NH2Y. […] The presence of DTT however, caused cells to grow at a rate 25-35% more slowly than those in the presence of only NH2Y or absence of NH2Y/DTT.

Data set [3] has as its system DH10B E. coli cells. The data set is described as follows: Qualitative assay for cellular uptake of NH2Y by LC-MS. Type of data set: cell-based. The conditions noted are these: 1 mM NH2Y with or without 0.1 mM DTT. On the procedure:
Qualitative assay for cellular uptake of NH2Y by LC-MS. The uptake assay was performed as previously described with minor modifications.^48 DH10B E. coli cells were grown to saturation at 37° C. in GMML in the presence of 1 mM NH2Y and 0.1 mM DTT and subsequently harvested and lysed as outlined previously. Chromatography of the crude extract was performed on a Zorbax SB-C18 (5 μm, 4.6×150 mm) column with a linear gradient from 5% to 25% MeCN in 0.1% TFA solution over 8 min at 0.5 mL/min. Under these conditions, NH2Y elutes at ˜13% MeCN. For HPLC-ESI-MS analysis, NH2Y standard solutions were prepared in water.
as §1

For data set [4] the following is noted: cited from earlier work.

Take `[N-]=[N+]=N[C@@H]1[C@H](O)[C@@H](COP(=O)(O)OP(=O)(O)O)O[C@H]1n1cnc2c(N)ncnc21` [N3ADP, 2′-Azido-2′-deoxyadenosine-5′-diphosphate]: the “initial Y122• lost (equivalent amount of N• formed)” value in data set [1] was 50-60%.
On to `O[C@H](CS)[C@H](O)CS` (racemic) [DTT, DL-dithiothreitol], for which the slower growth rate in the data set with DH10B E. coli cells [2] (Escherichia coli, 0.1 mM) is 25-35%.
Regarding `Nc1cc(C[C@H](N)C(=O)O)ccc1O` [NH2Y, 3-aminotyrosine], in the data set on DH10B E. coli cells [2] (NH2Y 1 mM, GMML medium), the “growth rates in the presence of substance” value is reported as “not significantly affected”. Moreover, the “cellular uptake (HPLC and ESI-MS of cell extracts)” value in the data set with DH10B E. coli cells [3] was “observed in all cell extracts”. For the same compound, in data set [4] (pH 7.0), the reduction potential is 0.64 V and the “reduction potential lower than that of Y” value is 0.19 V. Also, in data set [4] (pH 7), the “reduction potential lower than that of Y” value is recorded as 190 mV.
